{"source": "paper PMC4961458", "about": "(eLife, 2016)", "key": {"[1]": {"tested_on": "HCI-003 patient derived xenograft tumors", "assay": "HCI-003 patient derived xenograft efficacy", "type": "in vivo, mice", "conditions": "tamoxifen 60 mg/kg/day orally; fulvestrant 200 mg/kg 3x/week; 38 days", "text": "Like MCF7, HCI-003 tumors are ER+, E2 dependent and tamoxifen sensitive (Figure 4—figure supplement 1C). […] Lack of efficacy in this ER-negative model is consistent with the GDC-0810 mechanism of action being selectively mediated through ER.\nThe HCI-003 model was established at the University of Utah, Huntsman Cancer Center via direct implantation of both primary tumor material into immune compromised mice ([DeRose et al., 2011]). HCI-003 is wild-type at the ESR1 ligand binding domain. Exogenous estradiol is required for robust growth of this patient derived tumor line, and is supplied in the form of estradiol impregnated beeswax pellets. Tumor fragments obtained from the Huntsman Cancer Center were surgically implanted into the cleared mammary fat pad of 19 day old female NOD.CB17-Prkdc^scid/NcrCrl mice (Charles River Laboratories). The right mammary fat pad of recipient animals was exposed by a 1 cm incision on the ventral mid-line at the level of the fourth mammary. The blood vessels were cauterized and the fat pad blunt dissected from the abdominal wall and skin. Tumor fragments were excised from donor animals, chopped into fragments approximately 8 mm^3 (2 × 2 × 2 mm), implanted in the region of the cleared mammary fat pad, and the incision was closed with wound clips. Estradiol impregnated beeswax pellets were implanted subcutaneously into the interscapular space of recipient animals on the day of tumor implant. Recipient animals were ovariectomized 19 days after tumor fragment implant. One group of animals was designated as a control for estradiol independent tumor growth (Vehicle-E2) and the estradiol impregnated pellets were excised on the first day of dosing. All mice were housed and maintained according to the animal-use guidelines of the Institutional Animal Care and Use Committee (IACUC), conforming to California State legal and ethical practices."}, "uterus of juvenile rats": {"tested_on": "uterus of juvenile rats", "assay": "Juvenile rat uterus assays", "type": "in vivo, Sprague Dawley rats", "conditions": "fulvestrant 50 mg/kg", "text": "[…] Rats were euthanized 4 hr after the final dose. Uteri were then dissected, weighed and fixed for histological examination. A small portion of tissue was saved prior to fixation for mRNA isolation and gene expression analysis.\nH&E stained sections from bilateral representative uterine horn cross-sections were examined from two animals treated with the compounds shown. Endometrial cell height was digitally measured from the basement membrane to the apical (luminal) surface (orange line), using a digitally scanned image at 20X magnification. Obliquely cut areas were avoided. Three digital measurements were taken from each section (n = 6).\nEstrogen receptor was detected using the mouse monoclonal anti-ER (clone 1D5, Dako), incubated for 60 min at RT at a dilution of 0.5 µg/ml, and visualized after secondary rabbit anti-mouse antibody binding with Powervision DAB (Leica Powersystems). H-scores were estimated manually, incorporating both intensity and percentage of positive nuclei, using the following formula: (0 x% negative)+(1 x% weak)+(2 x% moderate)+(3 x% strong)"}, "TamR1 tumors": {"tested_on": "TamR1 tumors", "assay": "Tamoxifen-resistant MCF7 (TamR1) xenograft efficacy", "type": "in vivo, mice", "conditions": "0.18 mg 60 day E2 pellets; tamoxifen 120 mg/kg/day p.o.; fulvestrant 200 mg/kg 3x/week s.c.; GDC-0810 10, 30 or 100 mg/kg/day p.o.; 27 days", "experimental": "We previously generated a tamoxifen-resistant xenograft model, TamR1, by chronically treating MCF7 tumor bearing mice with tamoxifen until a resistant tumor emerged ([Lai et al., 2015]). […] These experiments were conducted in mice with relatively high levels of circulating estradiol, with estradiol being delivered via 0.72 mg 60 day release E2 pellets that are reported by the manufacturer (Innovative Research) to deliver between 300 and 400 pg/ml estradiol. Under these conditions the high E2 reduces the steady state ERα protein levels, thus confounding the readout of ERα protein as a pharmacodynamic endpoint (Figure 5—figure supplement 1). […] These pellets are sufficient to support tumor growth but only modestly reduce ERα levels (Figure 5—figure supplement 1).\nFigure 5. […] (A) Tamoxifen-resistant MCF7 tumors were implanted in animals supplemented with 60-day release 0.18 mg 17β-estradiol pellets. […] S.c. is sub-cutaneous dosing, and p.o. is per os (by mouth) oral gavage dosing. * Denotes significance (p<0.05) compared to Vehicle in 1-Way ANOVA and Dunnett's Multiple Comparison Test. Figure 5—figure supplement 1. Effects of estradiol pellet on ERα levels in MCF7-TamR1 xenograft tumors. TamR1 tumor fragments were implanted into Crl:NU-Foxn1^nu mice implanted with either 0.72 or 0.18 mg/60 day 17-β estradiol pellets. Once tumors were established pellets were removed from 1 group. 28 days after pellet removal ERα protein levels were determined for 4 tumors from each group. Data is presented as average compared to Vehicle (-E2). Error is standard deviation. * Denotes significance (p<0.05) compared to Vehicle (-E2) by T-test. [drawing 7] […] (A) ERα protein levels were determined by western blot analysis of tumors 8 hr following the final compound treatment on day 27. […] KI-67 expression, quantified from IHC analysis. […]\nThe tamoxifen-resistant derivative of the ER+ human tumor cell line, MCF7 (TamR1) was developed by Seragon Pharmaceuticals, Inc ([Lai et al., 2015]). […] The tumors which continued to grow under these conditions were serially passaged and evaluated for continued tamoxifen resistance. […]"}, "WHIM20 tumors": {"tested_on": "WHIM20 tumors", "type": "in vivo, mice", "conditions": "no E2 pellets; GDC-0810 100 mg/kg/day; tamoxifen 60 mg/kg/day; fulvestrant 50 mg/kg days 1, 3 and 7, 25 mg/kg weekly thereafter; 35 days", "text": "Figure 8. […] (B) Gene expression analysis of WHIM20 tumors after 4 days of dosing, harvested 8 hr after the final dose. […] (E) WHIM20 tumors were implanted in mice without supplemental 17β-estradiol pellets.\nThe WHIM20 patient derived xenograft model (WHIM20) was established via direct implantation of metastatic tumor material into immune compromised mice at Washington University in St. Louis ([Li et al., 2013]).\nTumors were established from fragments obtained from Washington University by subcutaneous implantation via 10G trocar into the right flank of 6–7 week old female NOD.CB17-Prkdc^scid/NcrCrl mice (Charles River Laboratories) and NOD.Cg-Prkdc^scid Il2rg^tm1Wjl/SzJ mice (Jackson Laboratories). Tumor line was propagated by serial transplantation. Animals were ovariectomized prior to initiation of treatment."}}}
{"smiles": "CC/C(=C(\\c1ccccc1)c1ccc(OCCN(C)C)cc1)c1ccccc1", "note": "[Tamoxifen]", "values": [{"measurement": "Anti-tumor activity, HCI-003 PDX (Figure 4—figure supplement 1C)", "setting": "[1]", "result": "display anti-tumor activity"}, {"measurement": "Uterine wet weight", "setting": "uterus of juvenile rats; tamoxifen 60 mg/kg orally once a day for 3 days, GDC-0810 0.1 or 10 mg/kg, relative to vehicle control", "result": "increases uterine wet weight"}, {"measurement": "Endometrial epithelial cell morphology (histology, endometrial cell height)", "setting": "uterus of juvenile rats; tamoxifen 60 mg/kg, GDC-0810 0.1 and 10 mg/kg", "result": "induced a cuboidal to columnar morphological change"}, {"measurement": "Tumor growth response, TamR1 xenograft, lower E2", "setting": "TamR1 tumors", "result": "stimulated tumor growth"}, {"measurement": "Tumor growth response, WHIM20 PDX", "setting": "WHIM20 tumors", "result": "induced tumor stasis"}]}
